Experimental data: patent US9802912B2, “Cyclic ortho ester fuel additive” (AIRBUS OPERATIONS LIMITED, priority 2013, dated 2017)

How the values were obtained:
[1] = GC measurement of hydrolysis of triethyl orthoformate by water in Jet A-1; format: physicochemical
Description: The analyses were performed using an Agilent 5890 gas chromatograph equipped with a flame ionisation detector. The GC column used was of fused silica, HP-5MS, 30 m by 0.25 mm, with a helium flow rate of 1.5 mL/min. The temperature for the detector and injector was fixed at 250° C. The oven temperature used for the analysis was 80° C. for 4 minutes, then it was increased at 20° C./min to 240° C. and held for 2 minutes.
Jet A-1, obtained by Air BP (Batch number BIS/HAL/12/035K), was dried by storing it over 3 Å molecular sieve for at least 24 hours. Standards with different water concentrations were prepared by adding measured volumes of distilled water by SGE μL syringes to 20 ml of anhydrous Jet A-1, taking extra care to inject the water in the middle of the solvent. Each standard was prepared just before use and ultrasonicated for 5 minutes to ensure an equal distribution of water.
A reactant solution was prepared to enable a simple, one-step addition of all the necessary chemicals. […]
For each water standard, the relative peak area (RPA) of ethanol was calculated by dividing the ethanol peak area by the internal standard peak area. […]

[2] = 1H NMR kinetics of acid catalysed hydrolysis of TMOA in AcOH/AcONa buffers; format: physicochemical
Description: Five buffers with constant acetic acid (AcOH) concentration and different H^+ concentrations were made by varying the amount of sodium acetate (AcONa) added (see Table 1). As the ionic concentration of the solution has an impact on the rate constant of hydrolysis, sodium chloride was added to keep the ionic strength constant in all 5 buffers.
The reaction samples were prepared directly in 5 mm NMR tube by adding 15 μL of TMOA in 500 μL of acetone-d6. To start the reaction 100 μL of acetic acid/sodium acetate aqueous buffer was added. All chemicals were purchased at the highest level of purity from Sigma Aldrich. Acetone-D6 and TMOA were dried before each experiment by distilling from 3 Å molecular sieve under nitrogen. Sodium chloride and sodium acetate were dried by heating them at T=100° C. for 4 hours under vacuum.
A 300 MHz NMR spectrometer was used to follow the concentration of TMOA with time by acquiring nine sequential ^1H NMR spectra every 10 min (actual delay time=10.38 min). Presaturation solvent suppression technique was used to obscure the H2O signal. An external reference was used by adding to the NMR tube a sealed capillary tube with 3-(trimethylsilyl)-1-propanesulfonic acid sodium salt dissolved in D2O (concentration=0.1966 M).
The TMOA ^1H NMR spectrum consists of two singlets resonating at 3.15 and 1.33 ppm, assigned to the —OCH3 and —CH3 residues, respectively (integrating 3:1—FIG. 7). The relative peak area (RPA—proportional to concentration) was measured by comparing the —CH3 resonance with that of the external reference.
The approach adopted for determining kH+ and kHA, was to exploit the constancy of Ka (=1.75×10^−5 mol/L) whilst varying the numerators (i.e., [A^−] 2→0.1 and pH 5.07→3.74) and maintaining [HA] constant (i.e., 0.192 mol/L). As the overall rate of reaction (equation III) is a summation of both processes described by kH+ and kHA, the rate constant kobs is therefore proportional to the concentration of both associated and dissociated acids (equation IV). rate=kobs[R—C(OR)3] (III) kobs=kH+[H^+]+kHA[HA] (IV)
Given that [HA] is constant, expression IV becomes equivalent to that of a straight line and kH+ and kHA may be determined by plotting kobs vs [H^+]. To obtain kobs however, the rate equation integrated over time (Eq. V) must be used. In[R—C(OR)3]t—In[R—C(OR)3]0=−kobst (V)
^1H NMR spectroscopy is the technique of choice when studying processes which occur on this timescale. Our choice of HA was acetic acid (AcOH), and five buffered solutions with different H^+ concentration were prepared by varying the amount of sodium acetate (AcONa=A^−). For the study, we switched focus from the aldehyde derivative TEOF (5, Scheme 1) used for the proof of concept study to the faster reacting keto-derivative trimethyl orthoacetate (TMOA) 8, Scheme 2 where R=—CH3) for reasons of atom economy (20% lighter).
[H^+] may be plotted (FIG. 5) and a straight line fitted (y=35.464×+1.6×10^−3; R^2=0.993) from which values for the gradient of the slope and y-intercept afford kH+=35.5 min^−1 and, kHA=7.8×10^−3 min^−1 respectively. It is clear that the pathway catalysed by dissociated acid H^+ (specific acid catalysis—scheme 2) is approximately 4500 times faster than the pathway catalysed by undissociated AcOH, within the pH range studied here (3.7→5.0).

In the case of `CCOC(OCC)OCC` [compound 5, triethyl orthoformate], the “reaction with water, completion” value ([1]; Jet A-1, methane sulfonic acid, 30 minutes) is reported as 100% and the “reaction with water, complete” value ([1]; Jet A-1, no added acid catalyst, after 2 days) is reported as 60-75%.

For `COC(C)(OC)OC` [TMOA, trimethyl orthoacetate], the Kobs ([2]; [AcOH]/[AcONa] 0.486, [H+] 8.51 × 10^−6 mol/L) was 0.0016 min⁻¹, the Kobs ([2]; [AcOH]/[AcONa] 1, [H+] 1.75 × 10^−5 mol/L) was 0.0024 min⁻¹ and the Kobs ([2]; [AcOH]/[AcONa] 2.918, [H+] 5.11 × 10^−5 mol/L) was 0.0036 min⁻¹. For the same molecule, the Kobs ([2]; [AcOH]/[AcONa] 4, [H+] 7.00 × 10^−5 mol/L) was 0.0042 min⁻¹, the Kobs ([2]; [AcOH]/[AcONa] 10.378, [H+] 1.82 × 10^−4 mol/L) was 0.008 min⁻¹ and the “kHA (general acid catalysis, undissociated AcOH)” value ([2]; from y-intercept of kobs v. [H+], [HA] 0.192 mol/L) was 0.0078 min⁻¹. For the same molecule, the “kH+ (specific acid catalysis)” value ([2]; gradient of kobs v. [H+], pH 3.7-5.0) was 35.5 min⁻¹ and the “rate of pathway catalysed by H+ relative to pathway catalysed by undissociated AcOH” value ([2]; pH 3.7-5.0) was “approximately 4500 times”.
